System: Saprolengia sp.
Assay: Antifungal bath treatment of Atlantic salmon infected by Saprolengia sp.
Assay type: in vivo
Settings: 1 h baths on Day 1 and Day 7
From the text: Five groups were formed, made up of 30 fish each of the Atlantic salmon species, 40-50 grams, showing clear signs of infection by the fungus Saprolengia sp., confirmed by laboratory tests. One of the groups was preserved as control without treatment, while the four remaining groups were subjected to experimental antifingal treatments. In this way, the groups were set up as follows: • GROUP 1: Without antifungal treatment • GROUP 2: Treated with the antifungal product bronopol, according to recommended dose of 20 ppm • GROUP 3: Treated with the Formulation A, in a dose of 28 ml/70 liters of water • GROUP 4: Treated with the Formulation B, in a dose of 28 ml/70 liters of water • GROUP 5: Treated with the Formulation C, in a dose of 28 ml/70 liters of water
The treatments consisted of the following: on Day 1, the fish were submerged for one hour in a bath with 70 liters of water to which the corresponding formulation had been added. Afterwards, they were transferred to breeding tanks that only contained water and with a standard feeding regime, all under the customary aquarium control that includes controlling the temperature (16-17 degrees C.), dissolved oxygen levels not lower than 7 ppm, and control of nitrites and ammonium. On Day 7, the fish were subjected to a second bath, similar to that of Day 1, to continue their development until 14 days of breeding had been completed, keeping a record of the fish killed due to the effect of the Saprolengia fungus. On Day 15, the fish that survived were harvested and the level of infection by Saprolengia was determined for each fish.
The infection level was classified according to the following scale: • INFECTION GRADE 0: healthy fish, without fungus on the skin • INFECTION GRADE 1: fish having only fungal spots on the skin. • INFECTION GRADE 2: fish with short fungal hypha • INFECTION GRADE 3: fish having necrosis of the tissues • INFECTION GRADE 4: fish with cottony hypha • INFECTION GRADE 5: fish dead due to fungal infection (occurring during the 14 days of breeding) Results

Structure (SMILES): O=[N+]([O-])C(Br)(CO)CO [bromopol, bromo-2-nitropropane-1.3-diol]
- fish with grade 5 (death) (30 fish per group, dead due to fungal infection during 14 days of breeding): 50%
- fish with grade 1-2 (infection level on Day 15, grade 1 fungal spots, grade 2 short fungal hypha): 40%
- fish with grade 0 (healthy) (infection level on Day 15, without fungus on the skin): 10%

— patent US20050276832A1, “Topical compositions and uses thereof for treating aquatic animals subjected to disinfection and vaccination” (Veterquimica Ltda., priority 2004, published 2005)
